The values below come from PubChem BioAssay AID1645848.

SMILES strings stand for the structures. Values after ≈ are worked out from the molar mass of the structure shown.

The conditions of the data set: buffer; pH 7.4; 6.0 h; 150.0 µM.
For `Nc1nc2c(s1)C(c1cccc(F)c1F)CC(=O)N2` (configuration not stated), the kinetic solubility (commonly the concentration staying in solution when a stock, usually in DMSO, is diluted into the medium) stood at 8.33 µg/mL (≈ 29.6 µM).

The molecule `COc1ccccc1N1CCN(CCN(C(=O)c2ccc(F)cc2)c2ccccn2)CC1` had a solubility (kinetic) above 64 µg/mL. The result for `COC(=O)C1=C(C)NC(C)=C(C(=O)OCCCN2CCC(c3ccccc3)(c3ccccc3)CC2)C1c1cccc([N+](=O)[O-])c1.Cl` (configuration not stated) reads below 1 µg/mL. The result for `CC1=C(C(=O)Nc2ccccc2)C(c2ccccc2Br)N=C(Nc2nc3ccccc3o2)N1` (configuration not stated) reads below 1 µg/mL; that for `Cc1cc(C)cc(C(=O)Nc2ccc3c(N4CCCC4)ncnc3c2)c1`, below 1 µg/mL; that for `CN(C)CCNC(=O)c1nc2nc(-c3ccccc3)c(-c3cccc(F)c3)cc2n1C`, 51.3 µg/mL (≈ 123 µM). The result for `N[C@@H]1CN(c2c(F)cc3c(=O)c(C(=O)O)cn([C@@H]4C[C@@H]4F)c3c2Cl)CC12CC2` reads above 60 µg/mL; that for `CCC(CC)c1cc([C@H]2CN3CC[C@H]2C[C@@H]3CNS(=O)(=O)c2cccs2)nc(-c2ccncc2)n1`, 52.2 µg/mL (≈ 102 µM). For `Cc1ccc(S(=O)(=O)Nc2cnccc2C(=O)Nc2nc(-c3cccc(Cl)c3)cs2)cc1`, the solubility (kinetic) was below 1 µg/mL. Then `CC(C)c1ccc(-n2ncc3c(=O)n(CC(=O)Nc4cc(F)ccc4Cl)cnc32)cc1`, with below 1 µg/mL.

As to `COc1ccc(C2Nc3ccccc3C(=O)N2Cc2ccco2)cc1COc1c(C)cc(NC(C)=O)cc1C` (configuration not stated), the solubility (kinetic) amounted to 1.53 µg/mL (≈ 2.92 µM). For `COC(=O)c1c(NC(=O)Cc2coc3cc(C)ccc23)sc2c1CCC2`, the kinetic solubility was below 1 µg/mL.

The molecule `COc1cccc(CNc2ccc(S(=O)(=O)Nc3cc(C)on3)cc2)c1O` gave a solubility (kinetic) above 58 µg/mL. For the molecule `Cc1ccc(-c2cc(C(=O)Nc3cccc(S(N)(=O)=O)c3)c3ccccc3n2)cc1C`, the kinetic solubility is below 1 µg/mL.

With `Cc1cccc(-n2nc(C)c3c2NC(=O)CSC3c2ccccc2Cl)c1` (configuration not stated), the kinetic solubility worked out at 2.15 µg/mL (≈ 5.61 µM).

`COc1ccc(OC)c(CNc2ncnc3onc(C)c23)c1` displayed a solubility (kinetic) above 44 µg/mL. For the molecule `COc1cccc(CNc2ccc(S(=O)(=O)Nc3nc4ccccc4o3)cc2)c1O`, the kinetic solubility was above 63 µg/mL. The result for `CCCNC(=O)c1ccc2c(c1)N=C(C)c1c(C)ccc(C)c1S2` reads 2.73 µg/mL (≈ 8.08 µM); that for `Cc1ccc2oc3c(c(=O)c2c1)C(c1cccc(O)c1)N(CCCN1CCOCC1)C3=O` (configuration not stated), above 64 µg/mL. `COc1ccc(-c2cnc(N3CCC(C(N)=O)CC3)s2)cc1OC` yielded a kinetic solubility of 18.8 µg/mL (≈ 54 µM).

`CC(C)c1ccccc1-c1ncc(F)c(NCc2ccc(-c3ccn[nH]3)cc2)n1` yielded a solubility (kinetic) below 1 µg/mL. The result for `COc1ccc(OCc2ccc(-c3nc(C#N)c(NC(C)c4ccccc4)o3)o2)cc1` (configuration not stated) reads below 1 µg/mL; that for `O=C(c1nc(-c2ccc(Cl)cc2Cl)c2cnccn12)N1CCOCC1`, 20.2 µg/mL (≈ 53.6 µM); that for `O=C1Nc2ccccc2/C1=C\c1ccc(O)cc1`, 0.999 µg/mL (≈ 4.21 µM). `Cc1cccc(-n2c(C)cc(C=C(C#N)C#N)c2C)c1` came in with a kinetic solubility below 1 µg/mL. The result for `CCN1CCN(c2ncc3c(n2)CCN(Cc2cc(Br)cs2)C3)CC1` reads 37.1 µg/mL (≈ 88 µM); that for `CSc1cccc(NC(=O)CC[C@H]2O[C@@H]3O[C@]4(C)CC[C@H]5[C@H](C)CC[C@@H]([C@@H]2C)[C@@]35OO4)c1`, 1.2 µg/mL (≈ 2.6 µM). In the case of `CN(C)S(=O)(=O)c1cccc(NC(=O)c2ccc[nH]2)c1`, the kinetic solubility turned out to be 13.3 µg/mL (≈ 45.2 µM). The result for `COc1ccc(Nc2cc3c(nc2OC)nc(CCc2ccccc2)n3C)cn1` reads 22.4 µg/mL (≈ 57.5 µM); that for `O=C(Nc1cccc(C(F)(F)F)c1)c1cc2nc(-c3ccccc3)cc(C(F)(F)F)n2n1`, below 1 µg/mL; that for `O=C(N/N=C/c1ccc(Sc2ccccn2)o1)c1ccncc1`, above 48 µg/mL. The result for `COc1cc2c(cc1OC)C(C[C@H]1CN(S(=O)(=O)c3cccc(C#N)c3)CC[C@H]1CC(=O)O)=NCC2` reads above 76 µg/mL; that for `O=C(NCc1cccs1)c1cn2cc(-c3ccccc3)sc2n1`, below 1 µg/mL.

Turning to `Oc1ccc(CNc2ccccc2F)c2cccnc12`, the solubility (kinetic) was found to be 4.4 µg/mL (≈ 16.4 µM). `CC(C)N(CCCNC(=O)Nc1ccc(C(C)(C)C)cc1)C[C@H]1O[C@@H](n2cc(Br)c3c(N)ncnc32)[C@H](O)[C@@H]1O` returned a solubility (kinetic) of 73 µg/mL (≈ 118 µM). Then `Cc1ccc(S(=O)(=O)Nc2ccccc2C(=O)Nc2nc(-c3ccccc3)c(Br)s2)cc1`, with below 1 µg/mL; and `COc1ccccc1OCCNCC(O)COc1cccc2[nH]c3ccccc3c12` (configuration not stated), with above 60 µg/mL; and `COc1cc(Cl)cn2c(-c3cccc(NC4CNC4)n3)cnc12`, with above 49 µg/mL. With `CCN(CC)CCNC(=O)C1CCN(c2nn3cc(-c4ccc(F)cc4)nc3s2)CC1`, the solubility (kinetic) is above 66 µg/mL. Then `Cc1ccc(-c2ccc(CNc3nc(-c4ccccc4C(C)C)ncc3F)cc2)cn1`, with below 1 µg/mL; and `COc1ccc(C)cc1NC(=O)c1cnc(-c2ccc(F)cc2)nc1-c1ccncc1`, with below 1 µg/mL; and `COc1cc(-c2nc(-c3ccccc3)c(-c3cccs3)[nH]2)cc(OC)c1O`, with below 1 µg/mL. The result for `CC(=O)c1cccc(-c2csc3ncnc(Sc4nnnn4C)c23)c1` reads 14.1 µg/mL (≈ 38.2 µM); that for `CN1CCCN(C(c2ccccc2)c2ccc(Cl)cc2)CC1` (configuration not stated), 36.9 µg/mL (≈ 117 µM); that for `Cc1cc(NS(=O)(=O)c2ccc(NCCc3ccc(Cl)c(Cl)c3)cc2)no1`, 11.4 µg/mL (≈ 26.9 µM).

`O=C(NC1CCCc2c1cnn2-c1cccc(O)c1)c1ccccn1` (configuration not stated) had a kinetic solubility of 40 µg/mL (≈ 120 µM). In turn, `CN(C(=O)OC(C)(C)C)[C@@H](Cc1ccc(O[S+](=O)([O-])c2cccc3cnccc23)cc1)C(=O)N1CCN(C(=O)OCc2ccccc2)CC1` returned a kinetic solubility below 1 µg/mL.

`COc1ccc(CNc2ccc(S(=O)(=O)Nc3nccs3)cc2)cc1O` displayed a kinetic solubility of 7.85 µg/mL (≈ 20.1 µM). The result for `COc1cc([C@@H]2c3cc4c(cc3[C@H](O)[C@H]3COC(=O)[C@H]23)OCO4)cc(OC)c1OC` reads above 61 µg/mL; that for `Cc1ccc(-c2cc(C(=O)O)c3ccccc3n2)cc1`, above 39 µg/mL. Molecule `CS(=O)(=O)c1ccc(-c2csc(N3CCC(C(N)=O)CC3)n2)cc1` had a kinetic solubility of 7.22 µg/mL (≈ 19.8 µM). Then `CCOC(=O)c1cc(C)sc1NC(=O)c1ccc(Cl)s1`, with below 1 µg/mL. In turn, `O=C1CCCC2=C1C(c1ccccc1Cl)N=C(Nc1nc3ccccc3o1)N2` (configuration not stated) registered a kinetic solubility below 1 µg/mL. `Cc1ccc(S(=O)(=O)c2cnc(SC(C)C(=O)Nc3ccccc3)[nH]c2=O)cc1` (configuration not stated) gave a solubility (kinetic) above 63 µg/mL.

As for `O=C1CCCC2=C1C1(CCS(=O)(=O)C1)N=C(Nc1nc3ccccc3o1)N2` (configuration not stated), the solubility (kinetic) turned out to be 1.02 µg/mL (≈ 2.65 µM). The result for `Cc1cnc(NC(=O)c2ccc(-c3cccc([N+](=O)[O-])c3)o2)s1` reads below 1 µg/mL. Then `CC(=O)c1ccc(N2CCN(S(=O)(=O)c3ccc4c(c3)CC(=O)N4)CC2)cc1`, with 2.85 µg/mL (≈ 7.13 µM); and `Cc1ccc(S(=O)(=O)Nc2cnccc2C(=O)Nc2nc(-c3ccccc3)cs2)cc1`, with 9.42 µg/mL (≈ 20.9 µM). Then `COc1ccccc1Nc1ccnc(N2CCN(C(=O)c3ccccc3Cl)CC2)n1`, with 1.59 µg/mL (≈ 3.75 µM); and `O=C(Nc1nc(-c2ccc(Cl)s2)cs1)c1cccs1`, with below 1 µg/mL; and `Cc1ccc(NC2=C(c3ccc(C(F)(F)F)cc3)C(=O)c3ccccc32)cc1C`, with below 1 µg/mL. For the molecule `NC(=O)C1CCN(c2nccc(-c3ccc4c(c3)OCCCO4)n2)CC1`, the solubility (kinetic) worked out at 44.2 µg/mL (≈ 125 µM). The result for `CN(C)CCNC(=O)c1nc(-c2ccccc2)cc2[nH]ccc12` reads 28.3 µg/mL (≈ 91.9 µM). The result for `CCN(C(=O)C(NS(=O)(=O)c1ccc(Br)s1)c1ccccc1)c1ccc(C)c(C)c1` (configuration not stated) reads below 1 µg/mL; that for `NC(=O)C1CCN(c2ncc(Br)s2)CC1`, 32.3 µg/mL (≈ 111 µM). The result for `CC(C)c1ccc2oc3nc(N)c(C(=O)O)cc3c(=O)c2c1` reads above 44 µg/mL; that for `COc1ccccc1C(=O)Nc1nnc(SCc2cc(=O)c3ccccc3[nH]2)s1`, below 1 µg/mL; that for `Fc1cnc(-c2ccccc2C(F)F)nc1NCC1CCN(c2cnccn2)C1` (configuration not stated), 42.2 µg/mL (≈ 105 µM). Take `COc1ccc(-c2cc3nccn3c(Nc3ncccc3C(N)=O)n2)cc1OC`: the solubility (kinetic) came out at 24.2 µg/mL (≈ 62.1 µM). Then `CCc1cccc(-n2nnc(-c3nsc(NC(=O)c4cccc(OC)c4)n3)c2C)c1`, with below 1 µg/mL; and `CCOC(=O)N1CCN(C(=O)Cn2sc3nc(C)cc(C)c3c2=O)CC1`, with 39 µg/mL (≈ 103 µM).

As to `COc1ccnc(NC(=S)N2CCN(c3cc(C(F)(F)F)cc(C(F)(F)F)c3)CC2)c1`, the kinetic solubility turned out to be 2.88 µg/mL (≈ 6.21 µM). `Cc1cc(-c2nnc3n2CCCCC3)c(C)n1-c1ccc(C(F)(F)F)cc1` yielded a solubility (kinetic) of 43.3 µg/mL (≈ 116 µM). Molecule `O=C(c1nc(-c2cccnc2)c2ccccn12)N1CCOCC1` showed a solubility (kinetic) of 45.2 µg/mL (≈ 147 µM). `O=C(Nc1cccc(C(F)(F)F)c1)Nc1cc(S(=O)(=O)NC2CC2)ccc1-c1ccsc1` gave a kinetic solubility below 1 µg/mL. The molecule `CC(C)(O)Cn1c(NC(=O)c2ccc(-c3cn[nH]c3)s2)nc2cc(CN3CCOCC3)ccc21` had a kinetic solubility of 47 µg/mL (≈ 97.8 µM). On to `Fc1cc(Nc2nc(-c3ccncc3)nc3ccccc23)ccc1OC(F)(F)F`, for which the solubility (kinetic) is below 1 µg/mL. The molecule `O=C([C@H](Cc1ccc(O[S+](=O)([O-])c2cccc3cnccc23)cc1)N[S+](=O)([O-])c1cccc2cnccc12)N1CCN(Cc2ccccc2)CC1` displayed a solubility (kinetic) below 1 µg/mL.

With `COc1ccc(Cl)cc1C(=O)Nc1nc(-c2ccccc2)cs1`, the solubility (kinetic) was below 1 µg/mL. For the molecule `COc1cc(CNCCO)cc(Cl)c1OCc1ccc(Cl)cc1Cl.Cl`, the solubility (kinetic) was 40 µg/mL. In turn, `Fc1cc(Nc2nc(-c3ccncc3)nc3ccccc23)ccc1-c1cncnc1` had a kinetic solubility below 1 µg/mL. With `CN1CCc2cc3c(cc2C1)OCO3`, the kinetic solubility is above 28 µg/mL. `O=C1c2ccccc2C2=Nc3ccccc3SC(c3ccc(Cl)cc3)C12` (configuration not stated) showed a solubility (kinetic) below 1 µg/mL. The result for `NC(=O)C1CCN(c2nc(-c3cccc([N+](=O)[O-])c3)cs2)CC1` reads 28.4 µg/mL (≈ 85.3 µM); that for `Cc1ccnc(NC(=S)N2CCN(c3cc(C(F)(F)F)cc(C(F)(F)F)c3)CC2)c1`, 6.7 µg/mL (≈ 14.9 µM). Then `COc1cccc(C(=O)Nc2ccc([S+](=O)([O-])Nc3nccs3)cc2)c1O`, with 2.23 µg/mL (≈ 5.5 µM); and `Cc1ccc(S(=O)(=O)Nc2cnccc2C(=O)Nc2nc(-c3ccccc3Cl)cs2)cc1`, with 0.005 µg/mL (≈ 0.0103 µM).
